Measurements reported in paper PMC8004712, “MRAP2 Interaction with Melanocortin-4 Receptor in SnakeHead (Channa argus)” (Biomolecules, 2021).

What was measured:
caMC4R [1] = assay: cAMP assay, caMC4R; format: cell-based, Channa argus (Northern snakehead); conditions: HEK293T cells
caMC4R [2] = assay: Ligand binding assay, caMC4R (displacement of ^125I-NDP-MSH); set-up: species or system Channa argus (Northern snakehead); conditions: HEK293T cells, 48 h after transfection, competition with ^125I-NDP-MSH, 1-h incubation, DMEM/BSA, gamma counter, mean ± SEM of at least three independent experiments
[3] = test system: brain gnih, sgnrh and cgnrh; ovarian genes; conditions: black rockfish, ref not given, cited from earlier work
From the text: In addition to energy homeostasis, MC4R also regulates reproduction and sexual function. Compared with mammals, the evidence of MC4R in regulating teleost reproduction is relatively scarce. In swordtail fish, nonfunctional Y-linked mc4r copies in larger males act as dominant-negative mutants and delay puberty onset. In spotted scat, MC4R stimulates gnrh expression in the hypothalamus, thereby modulating pituitary FSH and LH synthesis.

MC4R = conditions: ref [36],[59],[65]; cited from earlier work
From the text: (decreased cell surface expression), or zebrafish and topmouth culter (increased cell surface expression). Therefore, MRAP2 has a differential effect on MC4R membrane expression in different species. […] In topmouth culter, two isoforms of MRAP2 are also sho ...

goldfish = conditions: intracerebroventricular, ref [25]; cited from earlier work
From the text: MC4R has been investigated in several non-mammalian vertebrates including ectotherm fish, such as goldfish, rainbow trout, spotted scat, grass carp, ricefield eel, orange-spotted grouper, and topmouth culter. Similar to mammalian MC4Rs, teleost MC4R is also involved in regulating food intake and maintaining energy balance. […] Meanwhile, intracerebroventricular administration of M ...

## CSCC[C@H](NC(=O)[C@H](CCCNC(=N)N)NC(=O)[C@H](Cc1ccc(O)cc1)NC(=O)[C@@H]1CCCN1C(=O)CNC(=O)[C@H](CCC(=O)O)NC(=O)[C@H](CC(=O)O)NC(=O)[C@H](CCCCN)NC(=O)[C@H](CCCCN)NC(=O)[C@H](CCC(=O)O)NC(=O)[C@H](C)N)C(=O)N[C@@H](CCC(=O)O)C(=O)N[C@@H](Cc1c[nH]cn1)C(=O)N[C@@H](Cc1ccccc1)C(=O)N[C@@H](CCCNC(=N)N)C(=O)N[C@@H](Cc1c[nH]c2ccccc12)C(=O)NCC(=O)N[C@@H](CO)C(=O)N1CCC[C@H]1C(=O)N1CCC[C@H]1C(=O)N[C@@H](CCCCN)C(=O)N[C@@H](CC(=O)O)C(=O)O [β-MSH]
caMC4R [1]; caMC4R vs hMC4R, cAMP
  maximal response at caMC4R in comparison with hMC4R: higher maximal responses than hMC4R
caMC4R [1]; caMC4R, % of hMC4R, cAMP by RIA, 1 h at 37 °C, maximal response, mean ± SEM of at least three independent experiments
  Rmax: 163.9 ± 89.36%
caMC4R [1]; caMC4R, cAMP by RIA, 0.5 mM isobutylmethylxanthine, 1 h at 37 °C, 10^−12 to 10^−6 M NDP-MSH and ACTH (1–24), 10^−11 to 10^−5 M α-MSH and β-MSH, mean ± SEM of at least three independent experiments
  EC50: 2.49 ± 0.81 nM
caMC4R [2]
  IC50: 329 ± 120 nM
[3]; in vitro
  expression of brain gnih, sgnrh and cgnrh: increase brain gnih and decrease sgnrh and cgnrh expression in vitro
[3]
  expression of ovarian genes: affect expression of some ovarian genes

## ACTH
MC4R
  ligand sensitivity of MC4R to ACTH in the presence of MRAP2: increasing ligand sensitivity to ACTH

## HS024
goldfish
  food intake: stimulates food intake

## melanotan II
goldfish
  food intake: inhibits food intake
